From US20080033057A1, “Hexahydro-isoalpha acid based protein kinase modulation cancer treatment” (Metaproteomics, LLC, priority 2006, published 2008) come the findings set out here.

Marks after values point to notes of the source that are not given here.

The subject of test [1] is 3T3-L1 adipocytes. The test can be described thus: Adiponectin secretion from insulin-resistant 3T3-L1 adipocytes. In kind it is cell-based, murine.
Description: 3T3-L1 cells were seeded at an initial density of 1×10^4 cells/cm^2 in 96-well plates. For two days, the cells were allowed grow to reach confluence. Following confluence, the cells were forced to differentiate into adipocytes by the addition of differentiation medium; this medium consisted of (1) 10% FBS/DMEM (high glucose); (2) 0.5 mM methylisobutylxanthine; (3) 0.5 μM dexamethasone and (4) 10 μg/ml insulin (MDI medium). From Day 3 through Day 5, the medium was changed to post-differentiation medium consisting of 10 μg/ml insulin in 10% FBS/DMEM.
Briefly, on Day 6, cells were maintained in serum-free media containing 0.5% bovine serum albumin (BSA) for three hours and then treated with 1 μg insulin/ml plus solvent or insulin plus test material. […] Twenty-four hours later, the supernatant medium was sampled for adiponectin determination.
Adiponectin Assay—The adiponectin secreted into the medium was quantified using the Mouse Adiponectin Quantikine® Immunoassay kit with no modifications (R&D Systems, Minneapolis, Minn.).
Statistical Calculations and Interpretation—All assays were preformed in duplicate. […] Differences between the doses were determined using the student's t-test without correction for multiple comparisons; the nominal five percent probability of a type I error was selected. […]
Test [2] deals with 3T3-L1 adipocytes. The test can be described thus: Adiponectin secretion from LPS-treated 3T3-L1 adipocytes. In kind it is cell-based, murine. The conditions noted are these: for induction of adiponectin secretion: any of the doses tested.
Test [3] relates to 3T3-L1 adipocytes. The test can be described thus: IL-6 secretion from LPS-treated 3T3-L1 adipocytes. The class given is cell-based, murine. As to conditions: with 100 ng LPS/ml, D5 3T3-L1 adipocytes.
Test [4] deals with 3T3-L1 adipocytes. The test can be described thus: Adiponectin secretion from TNFα-treated 3T3-L1 adipocytes. In kind it is cell-based, murine.
Description: For two days, the cells were allowed grow to reach confluence. […] (3) 0.5 μM dexamethasone and (4) 10 μg/ml insulin (MDI medium). […] Adiponectin Assay—The adiponectin secreted into the medium was quantified using the Mouse Adiponectin Quantikine® Immunoassay kit with no modifications (R&D Systems, Minneapolis, Minn.). […] Statistical Calculations and Interpretation—All assays were preformed in duplicate. […] Differences among the doses and test agents were determined using the Student's t-test without correction for multiple comparisons; the nominal five percent probability of a type I error was selected.
For test [5], the system named is 3T3-L1 adipocytes. The test can be described thus: Lipogenesis (Oil Red O / BODIPY) in 3T3-L1 adipocytes. In kind it is cell-based, murine. As to conditions: hops compounds 10, 5, 4 or 2 μg/ml; spent hops 50 μg/ml.
Description: Prior to experiments, cells were cultured in DMEM containing 10% FBS-HI added 50 units penicillin/ml and 50 μg streptomycin/ml, and maintained in log phase prior to experimental setup. Cells were grown in a 5% CO2 humidified incubator at 37° C. Components of the pre-confluent medium included (1) 10% FBS/DMEM containing 4.5 g glucose/L; (2) 50 U/ml penicillin; and (3) 50 μg/ml streptomycin. Growth medium was made by adding 50 ml of heat inactivated FBS and 5 ml of penicillin/streptomycin to 500 ml DMEM. This medium was stored at 4° C. Before use, the medium was warmed to 37° C. in a water bath.
T3-T1 cells were seeded at an initial density of 6×10^4 cells/cm^2 in 24-well plates. For two days, the cells were allowed grow to reach confluence. Following confluence, the cells were forced to differentiate into adipocytes by the addition of differentiation medium; this medium consisted of (1) 10% FBS/DMEM (high glucose); (2) 0.5 mM methylisobutylxanthine; (3) 0.5 μM dexamethasone and (4) 10 μg/ml insulin (MDI medium). After three days, the medium was changed to post-differentiation medium consisting of 10 μg/ml insulin in 10% FBS/DMEM.
AcE was partially dissolved in dimethyl sulfoxide (DMSO) and added to the culture medium to achieve a concentration of 50 μg/ml at Day 0 of differentiation and throughout the maturation phase (Days 6 or 7 (D6/7)). […]
Oil Red O Staining—Triglyceride content of D6/D7-differentiated 3T3-L1 cells was estimated with Oil Red O according to the method of Kasturi and Joshi [Kasturi, R. and Joshi, V. C. […] The resulting stained oil droplets were extracted from the cells with isopropanol and quantified by spectrophotometric analysis at 540 nm (MEL312e BIO-KINETICS READER, Bio-Tek Instruments, Winooski, Vt.).
Briefly, media were removed and cells were washed once with non-sterile PBS. […] After 15 min on an orbital shaker (DS-500, VWR Scientific Products, South Plainfield, N.J.) at ambient temperature, the cells were washed with 100 μL PBS followed by the addition of 100 μl PBS for reading for spectrofluorometric determination of BODIPY incorporation into the cells. […]
In test [6] the test system is A549 pulmonary epithelial cells. The test can be described thus: PGE2 biosynthesis in A549 cells stimulated by mite dust allergen. The class given is cell-based, human. The conditions noted are these: 10 μg/ml, mite allergen 1000 ng/ml.
Description: The filtrate was termed mite dust allergen and used to test for induction of PGE2 biosynthesis in A549 pulmonary epithelial cells.
Mite allergen was added to the culture medium to achieve a final concentration of 1000 ng/ml. Eighteen hours later, the media were sampled for PGE2 determination.
Test [7] can be described thus: Non-fasting serum glucose and insulin in db/db diabetic mice. The class given is in vivo, mouse.
Description: The Model—Male, C57BLKS/J m^+/m^+ Lepr^db (db/db) mice were used to assess the potential of the test materials to reduce fasting serum glucose or insulin concentrations.
Testing Procedure—Test substances were administered daily by gavage in 0.2% Tween-80. Serum was collected from the retroorbital sinus before the initial dose and ninety minutes after the third and final dose. Non-fasting serum glucose was determined enzymatically by the mutarotase/glucose oxidase method and serum insulin was determined by a mouse specific ELISA.
The Model—Male, C57BLKS/J m+/m+Leprdb (db/db) mice were used to assess the potential of the test materials to reduce fasting serum glucose or insulin concentrations.
Testing Procedure—Test substances were administered daily by gavage in 0.2% Tween-80. […] Non-fasting serum glucose was determined enzymatically by the mutarotase/glucose oxidase method and serum insulin was determined by a mouse specific ELISA.

Consider `CC(C)CCC1=C(O)C(C(=O)C(C)C)=C(O)C(CCC(C)C)(CCC(C)C)C1=O` [Hexahydrocolupulone (HHCL)], for which, in the test with 3T3-L1 adipocytes [1] (50.0 μg/ml, ratio of adiponectin index to IL-6 index, insulin-resistant 3T3-L1), the Adiponectin/IL-6 is recorded as 0.60#.

For `COc1ccc2c(c1)c(CC(=O)O)c(C)n2C(=O)c1ccc(Cl)cc1` [Indomethacin, indomethacin], the maximum adiponectin stimulation in the test on 3T3-L1 adipocytes [2] (LPS 100 ng/ml, […]) was 9%. In addition, the “Concentration of maximum stimulation of adiponectin secretion” value with 3T3-L1 adipocytes [2] (LPS-treated D5 3T3-L1 adipocytes) came out at 2.50 µg/mL. Also, the “Concentration providing the maximum inhibition of IL-6 secretion” value in the test on 3T3-L1 adipocytes [3] was determined as 5.00 µg/mL. For the same compound, the adiponectin secretion result with 3T3-L1 adipocytes [4] (0.5 ng TNFα/ml) is “dose-dependant decrease in adiponectin secretion”. For the same compound, in the test with 3T3-L1 adipocytes [4] (10 ng TNFα/ml, Example 16), the “increase of adiponectin secretion in the presence of TNFα” value is 94% and the “optimal concentration for adiponectin secretion” value is 2.5 µg/mL. In addition, the Adiponectin/IL-6 with 3T3-L1 adipocytes [4] (10 ng TNFα/ml, […]) is 2.00*.

On to `CC(=O)Oc1ccccc1C(=O)O` [Aspirin, aspirin], for which, in the test with 3T3-L1 adipocytes [2] (LPS 100 ng/ml), the “induction of adiponectin secretion” value is listed as “failed to induce adiponectin secretion”.

Take `CC(C)CCC1=C(O)C(C(=O)C(C)C)=C(O)C(CCC(C)C)(CCC(C)C)C1=O` [Hexahydro colupulone, hexahydrocolupulone]: the “adipogenic (lipogenic) response compared with controls” value (shortened to “adipogenic … compared with controls”) in the test on 3T3-L1 adipocytes [5] is “failed to elicit a lipogenic response greater than the solvent controls”. Besides, the “dose of maximal observed adiponectin secretion” value with 3T3-L1 adipocytes [1] (four doses tested) was found to be 12.5 µg/mL.

Take `Cc1c(C)c2c(c(C)c1O)CCC(C)(COc1ccc(CC3SC(=O)NC3=O)cc1)O2` (stereo not shown) [Troglitazone, troglitazone]: the “Concentration providing the maximum inhibition of IL-6 secretion” value in the test with 3T3-L1 adipocytes [3] came out at 10.0 µg/mL. For the same compound, the “maximum increase of adiponectin secretion from the TNFα solvent control” value in the test with 3T3-L1 adipocytes [4] (10 ng/ml TNFα) is listed as 51%.

For Beta acids, the “adipogenic … compared with controls” value in the test on 3T3-L1 adipocytes [5] is “comparable to indomethacin and troglitazone”. Further, the “Percent PGE2 Inhibition” value in test [6] stood at 83%.

As to `O=C(O)c1ccccc1O` [salicylic acid], in the test with 3T3-L1 adipocytes [2] (LPS 100 ng/ml), the “induction of adiponectin secretion” value is given as “failed to induce adiponectin secretion”.

Take `CCc1ccc(CCOc2ccc(CC3SC(=O)NC3=O)cc2)nc1` (stereo not shown) [Pioglitazone, pioglitazone]: the “Concentration providing the maximum inhibition of IL-6 secretion” value in the test on 3T3-L1 adipocytes [3] was 5.00 µg/mL. The “optimal concentration for adiponectin secretion” value in the test on 3T3-L1 adipocytes [4] (10 ng TNFα/ml, Example 16) turned out to be 1.25 µg/mL. For the same compound, the “Concentration of maximum adiponectin secretion over four doses” value in the test with 3T3-L1 adipocytes [4] (10 ng TNFα/ml, Example 17) amounted to 1.25 µg/mL.

For the compound `COc1cc(O)c(CC=C(C)C)c(O)c1C(=O)/C=C/c1ccc(O)cc1` [Xanthohumol, xanthohumol], in the test on 3T3-L1 adipocytes [5], the “adipogenic … compared with controls” value is “comparable to indomethacin and troglitazone”.

`CN(CCOc1ccc(CC2SC(=O)NC2=O)cc1)c1ccccn1` (stereo not shown) [rosiglitazone]: the “Glucose [% Pretreatment]” value in test [7] (db/db mice, non-fasting serum, 1.0 mg/kg-day by gavage, three days) is on record as 83.0# % Pretreatment.

With `CN(C)C(=N)N=C(N)N` [metformin], the “serum glucose relative to the controls” value in test [7] (three consecutive days) was “decreased both serum glucose and insulin concentrations”.
